Measured values from article PMC6271338, “Synthesis and Cytotoxic Evaluation of Alkoxylated Chalcones” (Molecules, 2014).
Values joined by “and” are separate entries in the source; they are usually repeats but may differ in a detail not shown here. Equal entries are not always repeated.

Assays:
A549 cells = assay: In vitro anti-proliferative SRB assay, A549; format: cell-based, human; details: for IC50: Homo sapiens, A549, increasing concentrations up to 30 μM, mean ± SD of at least three independent experiments; for SI (CC50 HMLE/IC50 A549) / SI (CC50 L02/IC50 A549): selectivity index; for SI (CC50 HMLE/IC50 A549): HMLE vs A549; for SI (CC50 L02/IC50 A549): L02 vs A549
[1] = Cytotoxicity (SRB) against non-tumoral HMLE cells; format: cell-based, human; details: human, HMLE cells (non-tumoral human mammary epithelial cells); increasing concentrations up to 100 μM; mean ± SD of at least three independent experiments; read-out: Normal Human Cell Lines, CC50, HMLE
[2] = system: human mammary epithelial cell (HMLE); assay: Cytotoxicity (SRB) against non-tumoral HMLE cells; format: cell-based; details: HMLE versus the five tumoral cell lines
[3] = system: five human cancer cell lines (HepG2, HeLa, MCF-7, A549 and SW1990); assay: In vitro anti-proliferative SRB assay, summary statements over the five-line panel; format: cell-based; details: most of their in vitro IC50 values against the five human cancer lines
Description: With a aim of identifying potential anticancer agents with enhanced levels of activity, as well as verifying the conclusions provided above, we took a14 as a starting compound, and then designed and synthesized a series of chalcones b1–42 bearing methoxy groups at the 2' and 6'-positions of the B-ring, whilst varying the substituents on the A-ring. The cytotoxicities of the resulting chalcones were evaluated in vitro against five human cancer cell lines and other two non-tumoral cell lines, including HepG2, HeLa, MCF-7, A549, SW1990, HMLE and L02, and the results are shown in Table 2.
HepG2 and MCF7 cells were grown in the Eagle’s minimum essential medium with Earle’s balanced salts (MEM-EBSS) medium, HeLa, A549 and L02 cells were grown in Dulbecco’s Modified Eagle Media (DMEM), SW1990 cells were grown in RPMI-1640 medium, and HMLE cell were grown in DMEM/F-12 medium. The media were supplemented with 100 U/mL penicillin, […] streptomycin and 10% fetal bovine serum (FBS), and incubated at 37 °C in a humidified atmosphere containing 5% CO2.
Cells were seeded into 96-well plates (4000 cells/well) and incubated at 37 °C in a humidified 5% CO2 atmosphere. After 24 h, the cells were treated with different concentrations of the compounds for 48 h in triplicate to generate dose-response curves. Cell viability was evaluated using the sulforhodamine B (SRB) assay as previous described. […] Etoposide was used as the positive control.

HepG2 cells = assay: In vitro anti-proliferative SRB assay, HepG2; format: cell-based, human; details: for IC50: Homo sapiens, HepG2, increasing concentrations up to 30 μM, mean ± SD of at least three independent experiments; for SI (CC50 HMLE/IC50 HepG2) / SI (CC50 L02/IC50 HepG2): selectivity index; for SI (CC50 HMLE/IC50 HepG2): HMLE vs HepG2; for SI (CC50 L02/IC50 HepG2): L02 vs HepG2
HeLa cells = assay: In vitro anti-proliferative SRB assay, HeLa; format: cell-based, human; details: for IC50: Homo sapiens, HeLa, increasing concentrations up to 30 μM, mean ± SD of at least three independent experiments; for SI (CC50 HMLE/IC50 Hela) / SI (CC50 L02/IC50 Hela): selectivity index; for SI (CC50 HMLE/IC50 Hela): HMLE vs HeLa; for SI (CC50 L02/IC50 Hela): L02 vs HeLa
SW1990 cells = assay: In vitro anti-proliferative SRB assay, SW1990; format: cell-based, human; details: for IC50: Homo sapiens, SW1990, increasing concentrations up to 30 μM, mean ± SD of at least three independent experiments; for SI (CC50 HMLE/IC50 SW1990) / SI (CC50 L02/IC50 SW1990): selectivity index; for SI (CC50 HMLE/IC50 SW1990): HMLE vs SW1990; for SI (CC50 L02/IC50 SW1990): L02 vs SW1990
MCF-7 cells = assay: In vitro anti-proliferative SRB assay, MCF-7; format: cell-based, human; details: for IC50: Homo sapiens, MCF7, increasing concentrations up to 30 μM, mean ± SD of at least three independent experiments; for SI (CC50 HMLE/IC50 MCF7) / SI (CC50 L02/IC50 MCF7): selectivity index; for SI (CC50 HMLE/IC50 MCF7): HMLE vs MCF7; for SI (CC50 L02/IC50 MCF7): L02 vs MCF7
[4] = Cytotoxicity (SRB) against non-tumoral L02 cells; format: cell-based, human; details: human, L02 cells (non-tumoral human liver cell line); increasing concentrations up to 100 μM; mean ± SD of at least three independent experiments; read-out: Normal Human Cell Lines, CC50, L02
[5] = system: L02 (a human liver cell line); assay: Cytotoxicity (SRB) against non-tumoral L02 cells; format: cell-based; details: L02 versus the five tumoral cell lines

Row | Structure (SMILES) | IC50 (A549 cells) [µM] | SI (CC50 HMLE/IC50 A549) (A549 cells) | SI (CC50 L02/IC50 A549) (A549 cells) | CC50 at 48 h [1] [µM] | SI between the CC50 in HMLE and IC50 in tumoral cells [2] | IC50 [3] [µM] | IC50 (HepG2 cells) [µM] | SI (CC50 HMLE/IC50 HepG2) (HepG2 cells) | SI (CC50 L02/IC50 HepG2) (HepG2 cells) | IC50 (HeLa cells) [µM] | SI (CC50 HMLE/IC50 Hela) (HeLa cells) | SI (CC50 L02/IC50 Hela) (HeLa cells) | melting point [°C] | IC50 (SW1990 cells) [µM] | SI (CC50 HMLE/IC50 SW1990) (SW1990 cells) | SI (CC50 L02/IC50 SW1990) (SW1990 cells) | IC50 (MCF-7 cells) [µM] | SI (CC50 HMLE/IC50 MCF7) (MCF-7 cells) | SI (CC50 L02/IC50 MCF7) (MCF-7 cells) | CC50 at 48 h [4] [µM] | also measured
1 | COc1cccc(OC)c1/C=C/C(=O)c1ccccc1OCc1ccccc1 [b11, (E)-1-(2-(Benzyloxy>)phenyl)-3-(2,6-dimethoxyphenyl)prop-2-en-1-one] | 3.63 ± 0.13 | 5.8 | 10.5 | 21 ± 1.26 | 2–7 fold | < 10 | 2.76 ± 0.04 | 7.6 | 13.9 | 3.62 ± 0.07 | 5.8 | 10.6 | 94.6 to 97.9 | 7.43 ± 0.56 | 2.8 | 5.2 | 4.15 ± 0.2 | 5.1 | 9.2 | 38.3 ± 5.63 | –
2 | COc1cc(C(=O)/C=C/c2c(OC)cccc2OC)ccc1O [b29, (E)-1-(4-Hydroxy-3-methoxyphenyl)-3-(2,6-dimethoxyphenyl)prop-2-en-1-one] | 1.5 ± 0.07 | 4.2 | >66.7 | 6.31 ± 0.13 | 2–7 fold and 2.1–6.5 fold | < 10 | 0.97 ± 0.04 | 6.5 | >103.1 | 1.83 ± 0.08 | 3.4 | >54.6 | 128.7 to 131.2 | 3.03 ± 0.05 | 2.1 | >33.0 | 1.79 ± 0.2 | 3.5 | >55.9 | > 100 | fold more potent than etoposide (A549 cells; A549 cells, ratio of IC50 values versus etoposide): 11.5 fold
3 | COc1cccc(OC)c1/C=C/C(=O)c1ccccc1F [b31, (E)-1-(2-Fluorophenyl)-3-(2,6-dimethoxyphenyl)prop-2-en-1-one] | 27.4 ± 0.67 | >3.6 | >3.6 | > 100 | 2–7 fold | – | 18 ± 0.88 | >5.6 | >5.6 | 23.3 ± 0.42 | >4.3 | >4.3 | 66.6 to 68.1 | > 30 | – | – | 23.5 ± 0.98 | >4.3 | >4.3 | > 100 | –
4 | COc1cccc(OC)c1/C=C/C(=O)c1cccc(Cl)c1 [b34, (E)-1-(3-Chlorophenyl)-3-(2,6-dimethoxyphenyl)prop-2-en-1-one] | 16.1 | 0.6 | 2.9 | 9.42 ± 1.21 | – | – | 13.5 | 0.7 | 3.5 | 16.6 | 0.6 | 2.8 | 116.5 to 117.2 | 21.4 | 0.4 | 2.2 | 22 | 0.4 | 2.1 | 46.9 ± 13.9 | SI between the CC50 in L02 and IC50 in tumoral cells [5]: more than 2 fold
5 | CCOc1ccccc1C(=O)/C=C/c1c(OC)cccc1OC [b8, (E)-1-(2-Ethoxyphenyl)-3-(2,6-dimethoxyphenyl)prop-2-en-1-one] | 7.36 ± 0.37 | 0.1 | 5.4 | 0.83 ± 0.21 | – | < 10 | 4.23 ± 0.09 | 0.2 | 9.3 | 8.72 ± 0.07 | 0.1 | 4.5 | 48.8 to 50.4 | 8.2 ± 0.12 | 0.1 | 4.8 | 8.56 ± 0.17 | 0.1 | 4.6 | 39.6 ± 7.53 | SI between the CC50 in L02 and IC50 in tumoral cells [5]: more than 2 fold
